ChEMBL document CHEMBL1201862, “PubChem BioAssay data set” (2004)
Structures can show the parent of a compound that is named as a salt. Activity calls are given as the source filed them.

Experiments:
[1] = cells
[2] = molecular target: T1, Oxysterols receptor LXR-beta (Homo sapiens, UniProt P55055); format: functional, cell-based;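 further: Cell-based luminescence dose-response assay of agonist activity at LXR, run as a confirmatory counterscreen to a daf-12 agonist screen; HEK293 cells with Gal4-LXR fusion and GAL4-driven luciferase reporter; agonist potency from rising luciferase signal of a Gal4-LXR reporter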
T1 sequence (P55055 whole entry): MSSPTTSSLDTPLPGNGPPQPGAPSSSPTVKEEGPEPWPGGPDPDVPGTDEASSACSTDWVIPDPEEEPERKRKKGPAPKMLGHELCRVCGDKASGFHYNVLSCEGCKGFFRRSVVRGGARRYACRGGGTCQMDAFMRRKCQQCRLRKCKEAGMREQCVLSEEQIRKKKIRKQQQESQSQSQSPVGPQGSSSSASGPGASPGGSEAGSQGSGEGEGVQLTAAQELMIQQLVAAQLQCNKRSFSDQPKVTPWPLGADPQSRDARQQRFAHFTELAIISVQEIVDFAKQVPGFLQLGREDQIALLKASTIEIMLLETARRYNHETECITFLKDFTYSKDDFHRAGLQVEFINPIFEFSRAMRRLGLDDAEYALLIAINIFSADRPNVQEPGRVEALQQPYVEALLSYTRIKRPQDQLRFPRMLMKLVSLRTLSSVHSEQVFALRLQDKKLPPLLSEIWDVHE

[3] = molecular target: T2, Protein skinhead-1 (Caenorhabditis elegans, UniProt P34707); format: functional
T2 sequence (P34707 whole entry): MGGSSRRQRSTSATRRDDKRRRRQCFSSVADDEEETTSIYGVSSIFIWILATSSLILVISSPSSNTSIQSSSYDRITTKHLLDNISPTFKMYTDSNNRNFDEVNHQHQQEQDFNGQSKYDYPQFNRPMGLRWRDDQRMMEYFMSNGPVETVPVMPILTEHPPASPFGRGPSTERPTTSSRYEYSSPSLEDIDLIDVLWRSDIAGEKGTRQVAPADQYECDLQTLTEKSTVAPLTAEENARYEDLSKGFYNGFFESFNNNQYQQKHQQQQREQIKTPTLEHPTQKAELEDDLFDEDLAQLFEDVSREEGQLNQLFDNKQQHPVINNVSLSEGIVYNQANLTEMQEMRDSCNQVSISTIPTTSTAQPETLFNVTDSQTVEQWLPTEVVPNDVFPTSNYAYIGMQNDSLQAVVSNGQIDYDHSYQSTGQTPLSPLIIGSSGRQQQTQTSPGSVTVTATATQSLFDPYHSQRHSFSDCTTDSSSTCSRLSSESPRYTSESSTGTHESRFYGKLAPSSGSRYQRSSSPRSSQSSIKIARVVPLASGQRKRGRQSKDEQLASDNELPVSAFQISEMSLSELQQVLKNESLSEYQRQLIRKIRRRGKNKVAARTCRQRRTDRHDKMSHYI

[4] = molecular target: T3, COUP transcription factor 2 (Homo sapiens, UniProt P24468); experiment: Luminescence-based cell-based high throughput dose response assay to identify inhibitors of COUP-TFII (NR2F2).; format: functional;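 further: HEK293 cells transiently cotransfected with COUP-TFII expression vector and reporter; luciferase reporter luminescence driven by COUP-TFII from the pX2-168 reporter plasmid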
T3 sequence (P24468 whole entry): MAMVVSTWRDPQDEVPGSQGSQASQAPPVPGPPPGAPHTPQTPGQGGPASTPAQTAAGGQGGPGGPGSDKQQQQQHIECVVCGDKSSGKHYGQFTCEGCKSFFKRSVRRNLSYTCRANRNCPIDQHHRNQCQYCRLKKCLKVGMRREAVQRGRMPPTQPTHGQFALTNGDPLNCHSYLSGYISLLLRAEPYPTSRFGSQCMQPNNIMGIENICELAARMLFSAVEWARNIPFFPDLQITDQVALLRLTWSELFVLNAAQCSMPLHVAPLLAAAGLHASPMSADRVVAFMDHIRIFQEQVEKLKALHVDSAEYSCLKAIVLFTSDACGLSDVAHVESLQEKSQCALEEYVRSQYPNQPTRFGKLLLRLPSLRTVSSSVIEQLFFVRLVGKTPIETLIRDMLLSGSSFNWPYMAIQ

[5] = molecular target: T4, Heat shock factor protein 1 (Mus musculus, UniProt P38532); experiment: inhibition of MG132-induced HSE-luciferase signal, confirmation, cell-based, NIH3T3, luminescence, dose retest (AID 2382); format: functional;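 further: NIH3T3 fibroblasts with HSF1-driven luciferase reporter stressed by proteasome inhibitor MG132; luminescence from HSF1-driven luciferase expression after 8 hours of MG132 stress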
T4 sequence (P38532 whole entry): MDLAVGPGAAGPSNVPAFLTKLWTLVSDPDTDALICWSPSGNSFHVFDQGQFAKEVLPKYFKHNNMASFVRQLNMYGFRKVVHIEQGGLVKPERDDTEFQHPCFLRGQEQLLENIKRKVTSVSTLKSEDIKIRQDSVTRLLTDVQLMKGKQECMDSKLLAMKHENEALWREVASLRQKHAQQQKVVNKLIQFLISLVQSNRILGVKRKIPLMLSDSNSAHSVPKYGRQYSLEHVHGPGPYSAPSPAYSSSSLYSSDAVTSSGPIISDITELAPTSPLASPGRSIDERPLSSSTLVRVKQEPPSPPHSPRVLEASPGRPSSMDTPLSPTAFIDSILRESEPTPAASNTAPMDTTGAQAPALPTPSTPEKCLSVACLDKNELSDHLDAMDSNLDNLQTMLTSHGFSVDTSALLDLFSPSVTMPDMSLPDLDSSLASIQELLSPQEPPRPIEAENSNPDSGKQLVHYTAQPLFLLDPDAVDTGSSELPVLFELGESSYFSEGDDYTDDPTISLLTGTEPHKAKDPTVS

[6] = molecular target: T5, Cytochrome P450 1A2 (Homo sapiens, UniProt P05177);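 further: PubChem cytochrome P450 panel assay, CYP1A2 panel member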
T5 sequence (P05177 whole entry): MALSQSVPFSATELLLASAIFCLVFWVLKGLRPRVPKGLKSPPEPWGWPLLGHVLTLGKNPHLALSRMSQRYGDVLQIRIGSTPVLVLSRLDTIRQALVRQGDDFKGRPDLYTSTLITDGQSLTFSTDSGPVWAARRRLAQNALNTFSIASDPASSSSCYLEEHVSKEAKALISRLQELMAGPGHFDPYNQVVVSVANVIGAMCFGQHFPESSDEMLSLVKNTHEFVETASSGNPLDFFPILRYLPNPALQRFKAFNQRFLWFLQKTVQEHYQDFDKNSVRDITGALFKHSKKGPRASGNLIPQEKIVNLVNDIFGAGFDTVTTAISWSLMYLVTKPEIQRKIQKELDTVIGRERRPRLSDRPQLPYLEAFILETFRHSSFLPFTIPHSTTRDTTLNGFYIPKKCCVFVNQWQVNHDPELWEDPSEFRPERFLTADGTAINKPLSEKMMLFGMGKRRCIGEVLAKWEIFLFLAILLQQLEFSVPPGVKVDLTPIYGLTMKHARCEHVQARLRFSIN

[7] = molecular target: T6, 1-phosphatidylinositol 4,5-bisphosphate phosphodiesterase gamma-1 (Homo sapiens, UniProt P19174); experiment: Counterscreen for inhibitors of phospholipase C isozymes (PLC-B3): Fluorescence-based biochemical high throughput dose response assay to identify inhibitors of phospholipase C isozymes (PLC-gamma1).
T6 sequence (P19174 whole entry): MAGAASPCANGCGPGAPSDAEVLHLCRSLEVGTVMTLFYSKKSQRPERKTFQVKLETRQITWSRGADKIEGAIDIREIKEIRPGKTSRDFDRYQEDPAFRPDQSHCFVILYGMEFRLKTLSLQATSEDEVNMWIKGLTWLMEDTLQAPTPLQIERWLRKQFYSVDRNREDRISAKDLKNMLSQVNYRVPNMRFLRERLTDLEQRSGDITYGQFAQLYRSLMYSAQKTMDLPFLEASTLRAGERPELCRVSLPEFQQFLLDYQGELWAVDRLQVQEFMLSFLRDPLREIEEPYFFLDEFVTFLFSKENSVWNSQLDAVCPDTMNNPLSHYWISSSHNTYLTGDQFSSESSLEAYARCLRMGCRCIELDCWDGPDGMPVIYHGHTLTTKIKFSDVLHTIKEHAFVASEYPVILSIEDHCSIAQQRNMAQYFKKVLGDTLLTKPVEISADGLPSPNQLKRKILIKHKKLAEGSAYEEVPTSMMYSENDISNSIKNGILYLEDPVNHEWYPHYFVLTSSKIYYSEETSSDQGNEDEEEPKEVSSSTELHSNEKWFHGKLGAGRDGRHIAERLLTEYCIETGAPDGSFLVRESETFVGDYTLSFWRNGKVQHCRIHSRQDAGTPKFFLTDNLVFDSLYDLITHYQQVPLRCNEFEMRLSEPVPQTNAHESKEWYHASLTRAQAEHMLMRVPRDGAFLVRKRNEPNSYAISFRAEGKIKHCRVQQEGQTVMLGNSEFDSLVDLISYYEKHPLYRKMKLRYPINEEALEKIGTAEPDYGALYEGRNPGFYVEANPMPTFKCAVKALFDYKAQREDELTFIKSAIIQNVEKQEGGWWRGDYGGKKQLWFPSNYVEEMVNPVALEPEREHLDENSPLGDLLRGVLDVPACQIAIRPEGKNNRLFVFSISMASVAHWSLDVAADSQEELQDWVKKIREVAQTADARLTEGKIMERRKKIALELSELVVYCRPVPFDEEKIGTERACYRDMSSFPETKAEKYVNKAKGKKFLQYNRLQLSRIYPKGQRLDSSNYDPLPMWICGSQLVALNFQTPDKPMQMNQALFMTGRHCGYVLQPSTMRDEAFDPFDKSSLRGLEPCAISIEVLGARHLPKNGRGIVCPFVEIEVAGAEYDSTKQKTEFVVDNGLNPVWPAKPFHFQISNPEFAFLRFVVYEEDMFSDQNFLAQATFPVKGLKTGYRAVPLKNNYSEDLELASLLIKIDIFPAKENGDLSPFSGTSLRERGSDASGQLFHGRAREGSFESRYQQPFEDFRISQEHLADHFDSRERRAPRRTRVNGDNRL

[8] = molecular target: T7, 1-phosphatidylinositol 4,5-bisphosphate phosphodiesterase beta-3 (Homo sapiens, UniProt Q01970); experiment: Fluorescence-based biochemical high throughput dose response assay to identify inhibitors of phospholipase C isozymes (PLC-B3).
T7 sequence (Q01970 whole entry): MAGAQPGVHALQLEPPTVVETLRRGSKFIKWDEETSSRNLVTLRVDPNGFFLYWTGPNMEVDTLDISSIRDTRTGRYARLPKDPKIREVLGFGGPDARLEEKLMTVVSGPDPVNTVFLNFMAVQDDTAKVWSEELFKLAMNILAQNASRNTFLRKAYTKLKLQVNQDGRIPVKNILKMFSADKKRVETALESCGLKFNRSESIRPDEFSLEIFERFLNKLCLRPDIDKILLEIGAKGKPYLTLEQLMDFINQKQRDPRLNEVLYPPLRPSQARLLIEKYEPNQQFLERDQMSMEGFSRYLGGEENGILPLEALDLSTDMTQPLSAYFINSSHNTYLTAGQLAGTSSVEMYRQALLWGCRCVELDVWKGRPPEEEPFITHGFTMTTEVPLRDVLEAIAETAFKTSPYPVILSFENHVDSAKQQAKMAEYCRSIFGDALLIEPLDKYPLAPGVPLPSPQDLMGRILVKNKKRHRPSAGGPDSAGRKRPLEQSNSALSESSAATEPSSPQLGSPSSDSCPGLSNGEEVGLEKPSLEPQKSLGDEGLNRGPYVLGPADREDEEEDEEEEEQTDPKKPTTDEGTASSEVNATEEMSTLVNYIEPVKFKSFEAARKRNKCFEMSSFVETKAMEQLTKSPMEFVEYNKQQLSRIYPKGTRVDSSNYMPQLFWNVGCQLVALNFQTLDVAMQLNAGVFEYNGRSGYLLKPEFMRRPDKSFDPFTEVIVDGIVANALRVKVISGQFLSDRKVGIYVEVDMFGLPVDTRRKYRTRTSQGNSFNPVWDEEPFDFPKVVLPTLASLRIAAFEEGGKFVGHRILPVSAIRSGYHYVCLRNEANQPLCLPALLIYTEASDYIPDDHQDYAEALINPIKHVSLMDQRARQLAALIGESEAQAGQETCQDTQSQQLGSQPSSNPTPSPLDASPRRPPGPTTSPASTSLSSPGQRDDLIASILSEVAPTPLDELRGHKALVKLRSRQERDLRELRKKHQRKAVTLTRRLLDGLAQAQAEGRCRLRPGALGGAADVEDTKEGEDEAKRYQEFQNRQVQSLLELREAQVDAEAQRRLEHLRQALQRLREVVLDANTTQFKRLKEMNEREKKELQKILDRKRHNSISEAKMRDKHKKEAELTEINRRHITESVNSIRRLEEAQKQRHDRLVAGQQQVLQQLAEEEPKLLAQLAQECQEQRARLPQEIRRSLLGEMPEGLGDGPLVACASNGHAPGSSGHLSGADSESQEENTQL

[9] = molecular target: Voltage-dependent T-type calcium channel subunit alpha-1H (Homo sapiens, UniProt O95180); format: functional;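 further: channel activity triggered by adding a high calcium stimulation buffer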
[10] = HepG2 cell cytotoxicity, dose response, cytotoxicity control, cherry-picked samples (AID 1159577); format: functional, cell-based
[11] = molecular target: T8, Polyadenylate-binding protein 1 (Homo sapiens, UniProt P11940); experiment: PABP1 MLLE–PAM2 interaction inhibitors, dose response, miRNA deadenylation inhibitor project, biochemical, fluorescence polarization, Cy5-PAM2 peptide, secondary (AID 602260); format: functional; details: read-out: IC50_Mean
[12] = Dose-response inhibition of insulin secretion in a rat insulinoma line at 5 mM glucose (AID 1117331); format: functional, cell-based; details: INS-1E
[13] = molecular target: T8, Polyadenylate-binding protein 1; experiment: PABP1 MLLE–PAM2 binding inhibitor potency, dose response, biochemical, fluorescence polarization, FITC-PAM2 peptide (AID 602259); format: functional; details: read-out: IC50_Mean

T8 sequence (P11940 whole entry): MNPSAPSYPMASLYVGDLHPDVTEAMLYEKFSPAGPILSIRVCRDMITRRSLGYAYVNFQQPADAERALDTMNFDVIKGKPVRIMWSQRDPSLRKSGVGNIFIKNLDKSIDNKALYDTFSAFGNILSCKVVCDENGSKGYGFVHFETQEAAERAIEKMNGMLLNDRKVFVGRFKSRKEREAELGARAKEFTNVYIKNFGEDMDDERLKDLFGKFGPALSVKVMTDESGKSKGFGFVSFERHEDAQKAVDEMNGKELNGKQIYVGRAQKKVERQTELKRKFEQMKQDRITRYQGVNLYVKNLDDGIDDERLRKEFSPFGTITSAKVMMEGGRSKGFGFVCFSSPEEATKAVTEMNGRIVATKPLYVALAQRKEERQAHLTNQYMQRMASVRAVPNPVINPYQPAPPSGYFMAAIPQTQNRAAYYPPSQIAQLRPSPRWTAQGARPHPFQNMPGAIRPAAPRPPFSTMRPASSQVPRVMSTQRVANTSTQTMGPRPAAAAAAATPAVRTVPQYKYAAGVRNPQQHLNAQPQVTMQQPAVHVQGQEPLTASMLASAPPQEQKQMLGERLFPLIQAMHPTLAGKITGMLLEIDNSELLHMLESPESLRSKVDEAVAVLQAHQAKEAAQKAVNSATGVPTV
Chain of Voltage-dependent T-type calcium channel subunit alpha-1H (O95180 whole entry): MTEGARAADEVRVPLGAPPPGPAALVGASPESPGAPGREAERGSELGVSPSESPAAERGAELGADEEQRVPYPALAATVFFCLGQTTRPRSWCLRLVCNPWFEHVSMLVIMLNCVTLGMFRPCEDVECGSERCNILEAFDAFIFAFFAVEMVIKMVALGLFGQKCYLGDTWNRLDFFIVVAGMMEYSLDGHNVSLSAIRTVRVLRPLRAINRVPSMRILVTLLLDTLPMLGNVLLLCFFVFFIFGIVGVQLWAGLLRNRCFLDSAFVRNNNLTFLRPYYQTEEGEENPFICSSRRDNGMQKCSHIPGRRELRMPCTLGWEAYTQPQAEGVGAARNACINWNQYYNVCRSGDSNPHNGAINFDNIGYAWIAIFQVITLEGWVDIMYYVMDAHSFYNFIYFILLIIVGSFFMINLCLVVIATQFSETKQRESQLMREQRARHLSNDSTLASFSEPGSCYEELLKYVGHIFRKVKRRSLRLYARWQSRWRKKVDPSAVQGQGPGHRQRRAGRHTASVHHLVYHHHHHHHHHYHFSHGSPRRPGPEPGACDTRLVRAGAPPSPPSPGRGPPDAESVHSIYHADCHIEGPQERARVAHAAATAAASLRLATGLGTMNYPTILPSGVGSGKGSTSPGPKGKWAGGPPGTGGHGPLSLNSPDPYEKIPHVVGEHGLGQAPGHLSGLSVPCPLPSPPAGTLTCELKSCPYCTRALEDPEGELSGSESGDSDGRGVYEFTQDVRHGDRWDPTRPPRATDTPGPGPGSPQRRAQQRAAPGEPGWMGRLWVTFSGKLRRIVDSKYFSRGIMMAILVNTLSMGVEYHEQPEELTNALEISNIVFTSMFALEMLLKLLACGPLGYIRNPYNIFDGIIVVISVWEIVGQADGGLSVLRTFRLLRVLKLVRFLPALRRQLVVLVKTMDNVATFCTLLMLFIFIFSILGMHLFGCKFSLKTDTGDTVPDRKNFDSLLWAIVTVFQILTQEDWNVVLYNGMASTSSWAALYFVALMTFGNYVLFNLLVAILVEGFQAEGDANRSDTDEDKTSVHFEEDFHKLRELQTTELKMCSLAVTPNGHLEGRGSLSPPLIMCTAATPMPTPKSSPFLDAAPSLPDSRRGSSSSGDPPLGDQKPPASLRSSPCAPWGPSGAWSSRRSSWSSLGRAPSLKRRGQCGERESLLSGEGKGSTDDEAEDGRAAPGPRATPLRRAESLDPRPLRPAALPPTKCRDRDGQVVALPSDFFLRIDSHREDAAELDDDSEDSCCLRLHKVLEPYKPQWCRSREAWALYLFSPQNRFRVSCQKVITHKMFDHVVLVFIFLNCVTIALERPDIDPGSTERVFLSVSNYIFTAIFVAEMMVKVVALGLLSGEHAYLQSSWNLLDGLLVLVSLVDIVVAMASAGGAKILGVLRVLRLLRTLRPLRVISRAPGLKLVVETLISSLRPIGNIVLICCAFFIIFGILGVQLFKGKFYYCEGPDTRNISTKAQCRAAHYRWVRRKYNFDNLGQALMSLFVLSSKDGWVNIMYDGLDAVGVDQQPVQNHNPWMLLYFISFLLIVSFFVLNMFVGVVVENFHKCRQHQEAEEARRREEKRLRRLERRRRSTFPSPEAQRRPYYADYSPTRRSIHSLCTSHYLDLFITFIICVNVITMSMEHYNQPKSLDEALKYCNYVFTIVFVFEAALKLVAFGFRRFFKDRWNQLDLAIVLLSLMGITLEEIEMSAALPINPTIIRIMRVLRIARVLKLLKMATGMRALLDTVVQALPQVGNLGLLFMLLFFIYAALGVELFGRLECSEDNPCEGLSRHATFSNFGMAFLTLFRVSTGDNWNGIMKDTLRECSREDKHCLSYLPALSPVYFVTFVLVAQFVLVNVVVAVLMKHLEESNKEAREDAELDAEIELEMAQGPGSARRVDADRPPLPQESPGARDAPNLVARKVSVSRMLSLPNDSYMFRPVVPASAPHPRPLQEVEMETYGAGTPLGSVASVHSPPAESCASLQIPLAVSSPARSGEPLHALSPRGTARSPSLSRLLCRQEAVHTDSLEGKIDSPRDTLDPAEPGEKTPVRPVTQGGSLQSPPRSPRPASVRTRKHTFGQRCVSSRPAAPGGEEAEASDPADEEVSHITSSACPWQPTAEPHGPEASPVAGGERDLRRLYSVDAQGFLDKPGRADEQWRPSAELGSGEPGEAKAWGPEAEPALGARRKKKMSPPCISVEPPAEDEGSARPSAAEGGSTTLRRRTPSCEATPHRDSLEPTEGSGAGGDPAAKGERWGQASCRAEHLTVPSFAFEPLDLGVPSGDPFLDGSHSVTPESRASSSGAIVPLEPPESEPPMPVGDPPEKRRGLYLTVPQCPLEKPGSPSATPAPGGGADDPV

Q: With O=c1c(=NNc2ccccc2Cl)c(=O)c2ccccc12 as the molecule, how does the EC50 [1] read?
A: > 67.5 µM (inactive)

Q: What about the EC50 [2] of the same molecule?
A: > 67.5 µM (inactive)

Q: Which results are given for c1ccc(-c2csc(Nc3ccccn3)n2)cc1?
A: IC50 [3]: 18 µM (active); EC50 [1]: > 67.5 µM (inactive); EC50 [2]: > 67.5 µM (inactive)

Q: For O=C1NC(=O)C(=NNc2ccc3c(c2)OCCO3)C(=O)N1, which IC50 [4] is on record?
A: 6.75 µM (active)

Q: What about the EC50 [5] of the same molecule?
A: < 0.16 µM (active)

Q: Which AC50 [6] does the source give for CC(C)Oc1ccc(C(=O)Nc2ccc(NC(=O)c3ccco3)c(Cl)c2)cc1 here?
A: 22.4 µM (inconclusive)

Q: What about the IC50 [7] of the same molecule?
A: > 122 µM (inactive)

Q: What about the IC50 [8] of the same molecule?
A: > 122 µM (inactive)

Q: Which IC50 [3] does the source give for c1ccc(Nc2nc(-c3cccs3)cs2)nc1 here?
A: 15.6 µM (active)

Q: What about the EC50 [1] of the same molecule?
A: > 67.5 µM (inactive)

Q: And the EC50 [2]?
A: > 67.5 µM (inactive)

Q: What about the EC50 [9] of the same molecule?
A: 9.21 µM (active)

Q: For CCNC(=O)Nc1ccc2c(c1)C(=O)N(C)[C@H]1CC[C@H](CC(=O)N[C@H](C)c3ccccc3)O[C@@H]1CO2, which IC50 [7] is on record?
A: 68.8 µM (inactive)

Q: What about the IC50 [8] of the same molecule?
A: 61.9 µM (inactive)

Q: With COc1ccc2c3c([nH]c2c1)[C@@H](CO)N(C(=O)Nc1ccc(F)cc1)CC31CN(Cc2cc(F)ccc2F)C1 as the molecule, how does the AC50 [10] read?
A: 18.8 µM (active)

Q: With CC(=O)c1ccc2c(c1)N(CCCN(C)C)c1ccccc1S2 [ACEPROMAZINE MALEATE] as the molecule, how does the IC50 [11] read?
A: > 66 µM (inactive)

Q: What about the IC50 [12] of the same molecule?
A: 11.4 µM (inactive)

Q: What about the IC50 [13] of the same molecule?
A: > 66 µM (inactive)
